The test system of the assay is gastrointestinal motility. Kind of assay: Mouse Cecal Test (inhibition of gastrointestinal motility, charcoal in cecum). It counts as in vivo, mouse (male Charles River mice). Conditions: IG (oral), 30 min before oral charcoal, cecum examined 3.5 h after charcoal, all-or-none, logistic method of Berkson, read-out: ED50 ± S.E. (median effective dose). Here is the method: The method used for this assay is a modification of the techniques previously described by Macht and Barb-Gose, J. Amer. Pharm. Ass., 20, 558 (1931), and Janssen and Jageneau, J. Pharm. Pharmacol., 9, 381 (1957). Details are as follows:
A group of six, male Charles River mice weighing 20-25 g. which have been previously fasted for 24 hours are pretreated with the test compounds administered orally as a solution in water or suspended in 0.5% methyl cellulose. A constant volume of 10 ml./kg. is employed. Thirty minutes following administration of the test compounds, the animals are given a single oral dose of charcoal which consists of 0.2 ml. per mouse of 10% charcoal suspended in 1.0% methyl cellulose. Three and a half hours after charcoal administration, the animals are sacrificed and the cecum examined for the absence or presence of charcoal on an all-or-none basis.
The median effective dose (ED50) is then calculated for each compound using the logistic method of Berkson (1953).

Take `Cl.OCCC(CC1CC2CCN1CC2)(c1ccccc1)c1ccccc1` (centres unmarked) [gamma, gamma-diphenyl-1-azabicyclo[2.2.2]octane-2-butanol hydrochloride]: the median effective dose (ED50) was 1.2 ± 0.25 mg/kg. For `Cl.OC1(C(CC2CC3CCN2CC3)(c2ccccc2)c2ccccc2)CCCC1` (centres unmarked) [1-[2-(1-azabicyclo[2.2.2]octan-2-yl)-1,1-diphenylethyl] cyclopentanol hydrochloride] the value was 1.78 ± 0.83 mg/kg; for `OCCC(CC1CC2CCN1CC2)(c1ccccc1)c1ccccc1` (centres unmarked) [Gamma, gamma-diphenyl-1-azabicyclo[2.2.2]octane-2-butanol], 6.39 ± 2.09 mg/kg. For `CC(C)(O)C(CC1CC2CCN1CC2)(c1ccccc1)c1ccccc1` (stereo not drawn) [Alpha, alpha-dimethyl-beta, beta-diphenyl-1-azabicyclo [2.2.2]octane-2-propanol] the value was 1.6 ± 0.28 mg/kg. On to `OC1(C(CC2CC3CCN2CC3)(c2ccccc2)c2ccccc2)CCCC1` (centres unmarked) [1-[2-(1-azabicyclo[2.2.2]octan-2-yl)-1,1-diphenylethyl] cyclopentanol], for which the 50% effective dose (ED50) turned out to be 7.61 ± 2.23 mg/kg.
